Test results as given in patent US4272437A, “Antibacterial agents, and 4-thio azetidinone intermediates” (priority 1979, dated 1981).
Where two headings read alike, the source gives them in different places.

Key:
[1] = system: Proteus rettgeri A21203; experiment: MIC, tube dilution, Proteus rettgeri A21203; type: cell-based; settings: Providencia rettgeri, A21203, Proteus rettgeri A21203; overnight 37° C.; read-out: Minimum Inhibitory Concentration (M.I.C.)
From the text: (§1) Representative compounds of the present invention were subjected to in vitro antibiotic screening against a variety of microorganisms.

[2] = system: Str. pneumoniae A-9585; experiment: MIC, tube dilution, Streptococcus pneumoniae A9585; type: cell-based; settings: overnight 37° C., Nutrient Broth; for Minimum Inhibitory Concentration (M.I.C.): Str. pneumoniae A9585
From the text: as §1

[3] = system: Pr. vulgaris A-9716; experiment: MIC, tube dilution, Proteus vulgaris / Proteus mirabilis A9716; type: cell-based, Proteus vulgaris (name changed to Proteus mirabilis); settings: Proteus vulgaris, A9716, Proteus vulgaris / Proteus mirabilis A9716; overnight 37° C.; read-out: Minimum Inhibitory Concentration (M.I.C.)
From the text: as §1

[4] = system: S. aureus A9537; experiment: In vivo protection of mice, lethal infection with S. aureus A9537; settings: Staphylococcus aureus, A9537, im, IM, 2 treatments, 1.1 × 10^6 organisms; read-out: PD50
Procedure: Representative compounds of the present invention were also tested in vivo in mice and their PD50 (dose of compound in mg/kg required to protect 50% of the treated mice against an otherwise lethal infection of a micro-organism) values determined with respect to the test organisms shown below.

[5] = system: Staph. aureus (Meth-Res) A-15097; experiment: MIC, tube dilution, Staphylococcus aureus A15097 (Meth-Res); type: cell-based; settings: Staph. aureus A15097 (Meth-Res); overnight 37° C.
From the text: as §1

[6] = system: E. coli A-20341-1; experiment: MIC, tube dilution, Escherichia coli A20341-1; type: cell-based; settings: E. coli A20341-1, overnight 37° C.; for MIC: Escherichia coli, A203411, read-out: Minimum Inhibitory Concentration (M.I.C.)
From the text: as §1

[7] = system: Staph. aureus (Pen-Res) A-9606; experiment: MIC, tube dilution, Staphylococcus aureus A9606 (Pen-Res); type: cell-based; settings: Staph. aureus A9606 (Pen-Res), overnight 37° C.
From the text: as §1

[8] = system: Klebsiella species A20468; experiment: MIC, tube dilution, Klebsiella species A20468; type: cell-based; settings: Klebsiella species (K. pneumoniae) A20468, overnight 37° C.
From the text: as §1

[9] = system: Ser. marcescens A-20019; experiment: MIC, tube dilution, Serratia marcescens A20019; type: cell-based; settings: overnight 37° C.
From the text: as §1

[10] = system: Ent. cloacae A-9656; experiment: MIC, tube dilution, Enterobacter cloacae A9656; type: cell-based; settings: overnight 37° C.; for MIC: read-out: Minimum Inhibitory Concentration (M.I.C.)
From the text: as §1

[11] = system: Str. pyogenes A-9604; experiment: MIC, tube dilution, Streptococcus pyogenes A9604; type: cell-based; settings: overnight 37° C., Nutrient Broth; for Minimum Inhibitory Concentration (M.I.C.): Str. pyogenes A9604
From the text: as §1

[12] = system: Staph. aureus A-9537 and 50% serum; experiment: MIC, tube dilution, Staph. aureus A9537 + 50% serum; type: cell-based, Staphylococcus aureus; settings: overnight 37° C.
From the text: as §1

[13] = system: Ps. aeruginosa A-21213; experiment: MIC, tube dilution, Pseudomonas aeruginosa A21213; type: cell-based; settings: Pseudomonas aeruginosa A21213, overnight 37° C.
From the text: as §1

[14] = system: Pr. morganii A-15153; experiment: MIC, tube dilution, Proteus morganii A15153; type: cell-based; settings: overnight 37° C.
From the text: as §1

[15] = system: Staph. aureus A-9537; experiment: MIC, tube dilution, Staphylococcus aureus A9537; type: cell-based; settings: overnight 37° C., Nutrient Broth; for Minimum Inhibitory Concentration (M.I.C.): Staph. aureus A9537
From the text: as §1

[16] = system: K. pneumoniae A-15130; experiment: MIC, tube dilution, Klebsiella pneumoniae A15130; type: cell-based; settings: overnight 37° C.
From the text: as §1

[17] = Mouse blood levels after intramuscular administration; type: in vivo; settings: average of 6 mice, read-out: Mouse blood level
Procedure: Mouse blood levels after intramuscular administration of representative compounds of the present invention were determined and are reported in the table below.

[18] = system: Ps. aeruginosa A-9843A; experiment: MIC, tube dilution, Pseudomonas aeruginosa A9843A; type: cell-based; settings: overnight 37° C.
From the text: as §1

[19] = system: Ent. cloacae A-9659; experiment: MIC, tube dilution, Enterobacter cloacae A9659; type: cell-based; settings: overnight 37° C.
From the text: as §1

[20] = system: E. coli A-15119; experiment: MIC, tube dilution, Escherichia coli A15119; type: cell-based; settings: overnight 37° C.
From the text: as §1

[21] = system: Pr. mirabilis A-9900; experiment: MIC, tube dilution, Proteus mirabilis A9900; type: cell-based; settings: overnight 37° C.
From the text: as §1

[22] = system: Str. faecalis A-20688; experiment: MIC, tube dilution, Streptococcus faecalis A20688; type: cell-based; settings: Str. faecalis A20688; overnight 37° C.
From the text: as §1

[23] = system: Providencia stuartii A21205; experiment: MIC, tube dilution, Providencia stuartii (Pr. rettgeri) A21205; type: cell-based
From the text: as §1

[24] = Staphylococcus aureus, read-out: Minimum Inhibitory Concentration (M.I.C.)
[25] = read-out: Minimum Inhibitory Concentration (M.I.C.)

## NCCCC1=C(C(=O)O)N2C(=O)CC2S1 (stereo not shown) [Example 22, Sodium 2-Aminopropylpenem-3-carboxylate]
[1]
  MIC: 16 mg/L
[2]; Streptococcus pneumoniae, A9585, Str. pneumoniae A9585, read-out: Minimum Inhibitory Concentration (M.I.C.)
  MIC: 0.25 mg/L
[3]
  MIC: 16 mg/L
[4]
  ED50: 0.63 mg/kg
[5]
  Minimum Inhibitory Concentration (M.I.C.): 125 µg/mL
[6]
  MIC: 125 mg/L
[7]; [24]
  MIC: 63 mg/L
[8]; [25]
  MIC: > 125 mg/L
[9]; Serratia marcescens, A20019, Serratia marcescens A20019, read-out: Minimum Inhibitory Concentration (M.I.C.)
  MIC: 32 mg/L
[10]; Enterobacter cloacae, A9656, Enterobacter cloacae A9656
  MIC: 32 mg/L
[11]; Streptococcus pyogenes, A9604, Str. pyogenes A9604, read-out: Minimum Inhibitory Concentration (M.I.C.)
  MIC: 2 mg/L
[12]; [24]
  MIC: 63 mg/L
[13]; [25]
  MIC: 125 mg/L
[14]; Morganella morganii, A15153, Proteus morganii A15153, read-out: Minimum Inhibitory Concentration (M.I.C.)
  MIC: 32 mg/L
[15]; Staphylococcus aureus, A9537, Staph. aureus A9537, read-out: Minimum Inhibitory Concentration (M.I.C.)
  MIC: 2 mg/L
[16]; Klebsiella pneumoniae, A15130, K. pneumoniae A15130, read-out: Minimum Inhibitory Concentration (M.I.C.)
  MIC: 32 mg/L
[17]; 10 minutes after IM 40 mg/kg
  concentration at 10 min: 36.5 µg/mL
[17]; 20 minutes after IM 40 mg/kg
  concentration at 20 min: 39.9 µg/mL
[17]; 30 minutes after IM 40 mg/kg
  concentration at 0.5 h: 31.5 µg/mL
[17]; 45 minutes after IM 40 mg/kg
  concentration at 0.75 h: 16.5 µg/mL
[17]; 60 minutes after IM 40 mg/kg
  concentration at 1 h: 11.5 µg/mL
[17]; 90 minutes after IM 40 mg/kg
  concentration at 1.5 h: 5.7 µg/mL
[17]; 120 minutes after IM 40 mg/kg
  concentration at 2 h: 3.1 µg/mL
[18]; Pseudomonas aeruginosa, A9843A, read-out: Minimum Inhibitory Concentration (M.I.C.), Pseudomonas aeruginosa A9843A
  MIC: 125 mg/L
[19]; Enterobacter cloacae, A9659, Enterobacter cloacae A9659, read-out: Minimum Inhibitory Concentration (M.I.C.)
  MIC: 16 mg/L
[20]; Escherichia coli, A15119, E. coli A15119, read-out: Minimum Inhibitory Concentration (M.I.C.)
  MIC: 16 mg/L
[21]; Proteus mirabilis, A9900, Proteus mirabilis A9900, read-out: Minimum Inhibitory Concentration (M.I.C.)
  MIC: 16 mg/L
[22]
  Minimum Inhibitory Concentration (M.I.C.): 125 µg/mL

## CCC1C(=O)N2C(C(=O)[O-])=C(C)S[C@H]12.[Na+] (stereo partly drawn) [1 (trans), Sodium 6-Ethyl-2-methylpenem-3-carboxylate]
[2]
  Minimum Inhibitory Concentration (M.I.C.): 2 µg/mL
[23]; Providencia stuartii (Pr. rettgeri) A21205, overnight 37° C.
  Minimum Inhibitory Concentration (M.I.C.): 63 µg/mL
[5]
  Minimum Inhibitory Concentration (M.I.C.): 8 µg/mL
[6]
  Minimum Inhibitory Concentration (M.I.C.): 125 µg/mL
[7]
  Minimum Inhibitory Concentration (M.I.C.): 8 µg/mL
[8]
  Minimum Inhibitory Concentration (M.I.C.): > 125 µg/mL
[9]; Serratia marcescens A20019
  Minimum Inhibitory Concentration (M.I.C.): > 125 µg/mL
[10]; Enterobacter cloacae A9656
  Minimum Inhibitory Concentration (M.I.C.): > 125 µg/mL
[11]
  Minimum Inhibitory Concentration (M.I.C.): 4 µg/mL
[12]
  Minimum Inhibitory Concentration (M.I.C.): > 63 µg/mL
[13]
  Minimum Inhibitory Concentration (M.I.C.): > 125 µg/mL
[14]; Proteus morganii A15153
  Minimum Inhibitory Concentration (M.I.C.): > 125 µg/mL
[15]
  Minimum Inhibitory Concentration (M.I.C.): 8 µg/mL
[16]; K. pneumoniae A15130
  Minimum Inhibitory Concentration (M.I.C.): > 125 µg/mL
[18]; Pseudomonas aeruginosa A9843A
  Minimum Inhibitory Concentration (M.I.C.): > 125 µg/mL
[19]; Enterobacter cloacae A9659
  Minimum Inhibitory Concentration (M.I.C.): > 125 µg/mL
[20]; E. coli A15119
  Minimum Inhibitory Concentration (M.I.C.): 125 µg/mL
[21]; Proteus mirabilis A9900
  Minimum Inhibitory Concentration (M.I.C.): 125 µg/mL
[22]
  Minimum Inhibitory Concentration (M.I.C.): > 125 µg/mL

## CC1=C(C(=O)O)N2C(=O)C[C@H]2S1 [Preparation 4(-), (-)-2-Methylpenem-3-carboxylic Acid]
[2]
  Minimum Inhibitory Concentration (M.I.C.): 8 µg/mL
[23]; Providencia stuartii, A21205, read-out: Minimum Inhibitory Concentration (M.I.C.)
  MIC: > 125 mg/L
[6]
  MIC: > 125 mg/L
[8]
  Minimum Inhibitory Concentration (M.I.C.): > 125 µg/mL
[10]; Enterobacter cloacae A9656
  MIC: > 125 mg/L
[11]
  Minimum Inhibitory Concentration (M.I.C.): 8 µg/mL
[12]
  Minimum Inhibitory Concentration (M.I.C.): > 63 µg/mL
[15]
  Minimum Inhibitory Concentration (M.I.C.): 32 µg/mL
